Tests used:
Assay in all cases: Off-Target Kinase Profiling
Assay type in all cases: biochemical
Conditions in all cases: 10 μM; ATP near Km
RIPK2 = biological target: T1, RIPK2 (Homo sapiens, UniProt O43353)
T1 construct: purchased Millipore, Inc. (KinaseProfiler service)
Procedure, shortened: (§1)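 Profiling uses one compound concentration (10 μM) and ATP adjusted to approximately each kinase's Km. Duplicate measurements are averaged and expressed as percent of the uninhibited control.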

MRCKbeta = biological target: T2, MRCKbeta (Homo sapiens, UniProt Q9Y5S2)
T2 construct: purchased Millipore, Inc. (KinaseProfiler service)
T2 sequence (Q9Y5S2 whole entry): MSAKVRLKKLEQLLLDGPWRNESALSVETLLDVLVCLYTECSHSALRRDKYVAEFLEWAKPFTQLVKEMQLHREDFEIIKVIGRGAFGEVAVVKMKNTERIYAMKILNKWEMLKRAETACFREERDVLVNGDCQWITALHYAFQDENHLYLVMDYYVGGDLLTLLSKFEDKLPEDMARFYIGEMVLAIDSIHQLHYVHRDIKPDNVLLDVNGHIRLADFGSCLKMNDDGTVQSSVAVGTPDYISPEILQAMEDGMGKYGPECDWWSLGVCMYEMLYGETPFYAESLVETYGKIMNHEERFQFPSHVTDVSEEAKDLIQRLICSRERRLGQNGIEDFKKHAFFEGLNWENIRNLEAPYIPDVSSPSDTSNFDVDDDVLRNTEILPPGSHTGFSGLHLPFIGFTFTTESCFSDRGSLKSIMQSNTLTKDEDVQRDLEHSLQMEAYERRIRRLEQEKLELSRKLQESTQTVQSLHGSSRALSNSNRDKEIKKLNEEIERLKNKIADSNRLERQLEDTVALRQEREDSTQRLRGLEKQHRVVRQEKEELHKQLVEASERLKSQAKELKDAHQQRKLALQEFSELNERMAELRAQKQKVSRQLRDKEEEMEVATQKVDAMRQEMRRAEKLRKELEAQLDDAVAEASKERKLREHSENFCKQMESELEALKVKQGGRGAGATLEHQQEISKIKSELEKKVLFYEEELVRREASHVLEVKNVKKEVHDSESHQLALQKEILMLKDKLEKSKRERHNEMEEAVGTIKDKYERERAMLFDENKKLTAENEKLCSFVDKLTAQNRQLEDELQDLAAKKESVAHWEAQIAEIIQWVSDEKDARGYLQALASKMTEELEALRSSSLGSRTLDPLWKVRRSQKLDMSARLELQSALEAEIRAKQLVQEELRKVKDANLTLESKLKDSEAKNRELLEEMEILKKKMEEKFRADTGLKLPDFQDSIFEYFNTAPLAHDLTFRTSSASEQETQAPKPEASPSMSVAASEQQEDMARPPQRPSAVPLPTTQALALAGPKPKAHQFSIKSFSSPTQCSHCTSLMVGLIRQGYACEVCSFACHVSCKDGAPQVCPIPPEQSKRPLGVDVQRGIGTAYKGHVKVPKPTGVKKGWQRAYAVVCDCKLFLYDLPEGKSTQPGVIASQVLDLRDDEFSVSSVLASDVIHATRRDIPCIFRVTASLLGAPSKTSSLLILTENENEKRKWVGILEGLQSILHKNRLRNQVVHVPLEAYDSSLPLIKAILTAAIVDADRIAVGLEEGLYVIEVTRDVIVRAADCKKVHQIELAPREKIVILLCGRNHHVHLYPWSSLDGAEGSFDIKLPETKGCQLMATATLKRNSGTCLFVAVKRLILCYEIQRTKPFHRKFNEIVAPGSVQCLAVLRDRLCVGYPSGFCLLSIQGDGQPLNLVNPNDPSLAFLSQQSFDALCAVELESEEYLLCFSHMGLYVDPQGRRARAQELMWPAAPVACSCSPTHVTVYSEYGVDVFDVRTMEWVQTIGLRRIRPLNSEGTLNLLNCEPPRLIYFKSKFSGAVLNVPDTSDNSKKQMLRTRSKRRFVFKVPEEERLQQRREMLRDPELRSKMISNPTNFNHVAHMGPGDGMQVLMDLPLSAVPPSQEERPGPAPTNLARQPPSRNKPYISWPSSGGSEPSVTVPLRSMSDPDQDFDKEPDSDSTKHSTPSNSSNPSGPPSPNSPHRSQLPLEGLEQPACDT
Procedure, shortened: as §1

Mer = biological target: T3, Mer (Homo sapiens, UniProt Q12866)
T3 construct: purchased Millipore, Inc. (KinaseProfiler service)
T3 sequence (Q12866 21-999): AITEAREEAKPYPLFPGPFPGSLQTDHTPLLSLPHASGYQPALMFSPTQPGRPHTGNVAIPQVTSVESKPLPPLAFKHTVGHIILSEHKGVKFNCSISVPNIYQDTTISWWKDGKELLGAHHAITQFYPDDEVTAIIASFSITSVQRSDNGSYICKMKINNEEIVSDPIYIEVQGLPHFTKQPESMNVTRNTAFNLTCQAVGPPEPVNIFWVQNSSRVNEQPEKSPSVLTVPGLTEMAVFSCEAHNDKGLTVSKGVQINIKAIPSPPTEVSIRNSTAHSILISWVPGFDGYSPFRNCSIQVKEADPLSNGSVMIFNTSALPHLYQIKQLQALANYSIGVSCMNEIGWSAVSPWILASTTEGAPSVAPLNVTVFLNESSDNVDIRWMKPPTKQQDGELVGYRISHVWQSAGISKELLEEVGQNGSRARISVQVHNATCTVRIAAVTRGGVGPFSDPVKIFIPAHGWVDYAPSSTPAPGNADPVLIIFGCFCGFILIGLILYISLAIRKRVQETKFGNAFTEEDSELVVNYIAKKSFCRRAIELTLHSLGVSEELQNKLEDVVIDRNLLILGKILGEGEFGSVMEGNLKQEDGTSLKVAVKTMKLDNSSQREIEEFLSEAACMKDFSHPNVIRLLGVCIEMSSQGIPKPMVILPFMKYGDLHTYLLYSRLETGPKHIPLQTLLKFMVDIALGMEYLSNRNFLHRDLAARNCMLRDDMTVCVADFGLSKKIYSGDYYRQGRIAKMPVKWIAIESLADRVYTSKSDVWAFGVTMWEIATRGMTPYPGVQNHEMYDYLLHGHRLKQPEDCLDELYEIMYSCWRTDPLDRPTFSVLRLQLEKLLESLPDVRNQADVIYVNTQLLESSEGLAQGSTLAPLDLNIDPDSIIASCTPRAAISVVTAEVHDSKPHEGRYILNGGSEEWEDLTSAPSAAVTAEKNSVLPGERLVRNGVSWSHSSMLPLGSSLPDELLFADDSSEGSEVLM
Procedure, shortened: as §1

PKCeta = biological target: T4, PKCeta (Homo sapiens, UniProt P24723)
T4 construct: purchased Millipore, Inc. (KinaseProfiler service)
Procedure, shortened: as §1

SGK3 = biological target: T5, SGK3 (Homo sapiens, UniProt Q96BR1)
T5 construct: purchased Millipore, Inc. (KinaseProfiler service)
Procedure, shortened: as §1

DMPK = biological target: T6, DMPK (Homo sapiens, UniProt Q09013)
T6 construct: purchased Millipore, Inc. (KinaseProfiler service)
Procedure, shortened: as §1

PAK5 = biological target: T7, PAK5 (Homo sapiens, UniProt Q9P286)
T7 construct: purchased Millipore, Inc. (KinaseProfiler service)
Procedure, shortened: as §1

LIMK1 = biological target: T8, LIMK1 (Homo sapiens, UniProt P53667)
T8 construct: purchased Millipore, Inc. (KinaseProfiler service)
Procedure, shortened: as §1

NLK = biological target: T9, NLK (Homo sapiens, UniProt Q9UBE8)
T9 construct: purchased Millipore, Inc. (KinaseProfiler service)
T9 sequence (Q9UBE8 whole entry): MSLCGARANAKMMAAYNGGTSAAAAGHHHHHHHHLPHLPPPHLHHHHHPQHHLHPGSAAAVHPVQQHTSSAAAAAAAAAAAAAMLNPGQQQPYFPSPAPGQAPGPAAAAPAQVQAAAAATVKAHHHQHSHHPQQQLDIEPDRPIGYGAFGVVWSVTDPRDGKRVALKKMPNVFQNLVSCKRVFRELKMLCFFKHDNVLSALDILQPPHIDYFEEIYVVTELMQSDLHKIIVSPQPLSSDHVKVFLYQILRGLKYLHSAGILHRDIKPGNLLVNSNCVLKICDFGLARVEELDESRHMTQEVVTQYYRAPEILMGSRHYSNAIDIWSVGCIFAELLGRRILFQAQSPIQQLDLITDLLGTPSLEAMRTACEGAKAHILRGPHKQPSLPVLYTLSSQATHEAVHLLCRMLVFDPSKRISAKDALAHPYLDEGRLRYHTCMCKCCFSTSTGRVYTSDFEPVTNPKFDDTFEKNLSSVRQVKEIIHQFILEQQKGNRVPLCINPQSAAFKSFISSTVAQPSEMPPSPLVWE
Procedure, shortened: as §1

TNK2 = biological target: T10, TNK2 (Homo sapiens, UniProt Q07912)
T10 construct: purchased Millipore, Inc. (KinaseProfiler service)
T10 sequence (Q07912 whole entry): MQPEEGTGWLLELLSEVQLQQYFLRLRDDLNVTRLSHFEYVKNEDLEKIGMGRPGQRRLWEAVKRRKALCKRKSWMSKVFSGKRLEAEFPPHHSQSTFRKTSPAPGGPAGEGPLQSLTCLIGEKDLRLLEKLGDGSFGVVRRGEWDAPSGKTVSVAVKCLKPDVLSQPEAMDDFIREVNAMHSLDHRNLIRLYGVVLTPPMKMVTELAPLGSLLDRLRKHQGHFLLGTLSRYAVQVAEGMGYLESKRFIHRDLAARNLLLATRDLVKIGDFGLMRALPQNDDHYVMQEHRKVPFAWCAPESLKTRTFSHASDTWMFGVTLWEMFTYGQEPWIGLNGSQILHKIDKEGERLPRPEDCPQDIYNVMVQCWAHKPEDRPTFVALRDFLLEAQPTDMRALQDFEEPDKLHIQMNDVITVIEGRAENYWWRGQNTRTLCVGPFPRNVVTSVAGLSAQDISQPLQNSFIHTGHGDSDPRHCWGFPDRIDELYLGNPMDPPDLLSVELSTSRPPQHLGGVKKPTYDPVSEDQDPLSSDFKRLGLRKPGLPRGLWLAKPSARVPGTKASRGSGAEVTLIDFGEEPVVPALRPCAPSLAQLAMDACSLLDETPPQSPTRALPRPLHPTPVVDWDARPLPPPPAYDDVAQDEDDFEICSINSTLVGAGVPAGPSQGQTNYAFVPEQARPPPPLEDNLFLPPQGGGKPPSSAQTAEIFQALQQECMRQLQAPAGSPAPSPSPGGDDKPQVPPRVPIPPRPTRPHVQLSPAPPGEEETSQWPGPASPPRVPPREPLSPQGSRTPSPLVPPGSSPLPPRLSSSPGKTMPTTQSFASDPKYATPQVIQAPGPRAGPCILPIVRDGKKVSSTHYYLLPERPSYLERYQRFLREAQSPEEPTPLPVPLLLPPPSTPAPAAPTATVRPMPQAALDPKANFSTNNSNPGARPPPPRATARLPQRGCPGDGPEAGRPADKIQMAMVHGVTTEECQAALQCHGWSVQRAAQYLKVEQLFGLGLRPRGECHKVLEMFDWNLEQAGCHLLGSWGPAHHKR
Procedure, shortened: as §1

Plk2 = biological target: T11, Plk2 (Homo sapiens, UniProt Q9NYY3)
T11 construct: purchased Millipore, Inc. (KinaseProfiler service)
Procedure, shortened: as §1

TBK1 = biological target: T12, TBK1 (Homo sapiens, UniProt Q9UHD2)
T12 construct: purchased Millipore, Inc. (KinaseProfiler service)
Procedure, shortened: as §1

CAMK4 = biological target: T13, CAMK4 (Homo sapiens, UniProt Q16566)
T13 construct: purchased Millipore (KinaseProfiler service)
Procedure, shortened: as §1

Txk = biological target: T14, Txk (Homo sapiens, UniProt P42681)
T14 construct: purchased Millipore, Inc. (KinaseProfiler service)
Procedure, shortened: as §1

CDK1/cyclinB = biological target: T15, CDK1/cyclinB (Homo sapiens, UniProt P06493)
T15 construct: purchased Millipore (KinaseProfiler service)
Procedure, shortened: as §1

Flt3 = biological target: T16, Flt3 (Homo sapiens, UniProt P36888)
T16 construct: purchased Millipore, Inc. (KinaseProfiler service)
Procedure, shortened: as §1

PAK2 = biological target: T17, PAK2 (Homo sapiens, UniProt Q13177)
T17 construct: purchased Millipore, Inc. (KinaseProfiler service)
T17 sequence (Q13177 whole entry): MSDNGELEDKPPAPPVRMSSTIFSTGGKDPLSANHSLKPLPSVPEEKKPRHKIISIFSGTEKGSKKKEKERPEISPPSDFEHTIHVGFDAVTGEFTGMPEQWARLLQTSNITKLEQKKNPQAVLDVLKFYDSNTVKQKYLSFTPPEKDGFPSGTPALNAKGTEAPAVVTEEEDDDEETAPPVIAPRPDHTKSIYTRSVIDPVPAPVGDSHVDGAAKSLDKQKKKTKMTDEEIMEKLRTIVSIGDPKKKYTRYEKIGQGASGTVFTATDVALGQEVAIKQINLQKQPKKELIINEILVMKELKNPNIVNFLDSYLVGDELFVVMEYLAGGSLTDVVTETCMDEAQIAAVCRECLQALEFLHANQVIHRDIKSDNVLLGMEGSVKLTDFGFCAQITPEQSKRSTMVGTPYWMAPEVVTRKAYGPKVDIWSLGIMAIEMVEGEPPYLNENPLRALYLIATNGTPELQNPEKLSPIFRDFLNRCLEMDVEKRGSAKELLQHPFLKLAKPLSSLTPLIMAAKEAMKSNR
Procedure, shortened: as §1

PhKgamma2 = biological target: T18, PhKgamma2 (Homo sapiens, UniProt P15735)
T18 construct: purchased Millipore, Inc. (KinaseProfiler service)
Procedure, shortened: as §1

FGFR1 = biological target: T19, FGFR1 (Homo sapiens, UniProt P11362)
T19 construct: purchased Millipore, Inc. (KinaseProfiler service)
Procedure, shortened: as §1

CDK5/p25 = biological target: T20, CDK5/p25 (Homo sapiens, UniProt Q00535)
T20 construct: purchased Millipore, Inc. (KinaseProfiler service)
Procedure, shortened: as §1

JNK3 = biological target: T21, JNK3 (Homo sapiens, UniProt P53779)
T21 construct: purchased Millipore, Inc. (KinaseProfiler service)
Procedure, shortened: as §1

ULK2 = biological target: T22, ULK2 (Homo sapiens, UniProt Q8IYT8)
T22 construct: purchased Millipore, Inc. (KinaseProfiler service)
Procedure, shortened: as §1

BrSK1 = biological target: T23, BrSK1 (Homo sapiens, UniProt Q8TDC3)
T23 construct: purchased Millipore (KinaseProfiler service)
Procedure, shortened: as §1

DRAK1 = biological target: T24, DRAK1 (Homo sapiens, UniProt Q9UEE5)
T24 construct: purchased Millipore, Inc. (KinaseProfiler service)
Procedure, shortened: as §1

mTOR/FKBP12 = biological target: T25, mTOR/FKBP12 (Homo sapiens, UniProt P42345)
T25 construct: purchased Millipore, Inc. (KinaseProfiler service)
Procedure, shortened: as §1

IRR = biological target: T26, IRR (Homo sapiens, UniProt P14616)
T26 construct: purchased Millipore, Inc. (KinaseProfiler service)
Procedure, shortened: as §1

GSK3beta = biological target: T27, GSK3beta (Homo sapiens, UniProt P49841)
T27 construct: purchased Millipore, Inc. (KinaseProfiler service)
Procedure, shortened: as §1

ZAP-70 = biological target: T28, ZAP-70 (Homo sapiens, UniProt P43403)
T28 construct: purchased Millipore, Inc. (KinaseProfiler service)
Procedure, shortened: as §1

PDK1 = biological target: T29, PDK1 (Homo sapiens, UniProt O15530)
T29 construct: purchased Millipore, Inc. (KinaseProfiler service)
Procedure, shortened: as §1

MAP3K5 = biological target: T30, MAP3K5 (Homo sapiens, UniProt Q99683)
T30 construct: purchased Millipore, Inc. (KinaseProfiler service)
Procedure, shortened: as §1

CK1gamma3 = biological target: T31, CK1gamma3 (Homo sapiens, UniProt Q9Y6M4)
T31 construct: purchased Millipore, Inc. (KinaseProfiler service)
Procedure, shortened: as §1

NEK6 = biological target: T32, NEK6 (Homo sapiens, UniProt Q9HC98)
T32 construct: purchased Millipore, Inc. (KinaseProfiler service)
T32 sequence (Q9HC98 whole entry): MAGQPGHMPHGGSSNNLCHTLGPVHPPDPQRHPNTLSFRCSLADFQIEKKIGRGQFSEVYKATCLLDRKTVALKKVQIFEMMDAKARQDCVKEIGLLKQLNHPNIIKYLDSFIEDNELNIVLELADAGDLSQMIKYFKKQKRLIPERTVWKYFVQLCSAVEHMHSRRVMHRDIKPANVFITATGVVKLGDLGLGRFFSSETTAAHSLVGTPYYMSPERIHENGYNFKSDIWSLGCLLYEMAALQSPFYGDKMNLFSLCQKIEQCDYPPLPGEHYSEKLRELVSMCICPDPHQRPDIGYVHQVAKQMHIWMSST
Procedure, shortened: as §1

IR Activated = biological target: T33, IR Activated (Homo sapiens, UniProt P06213)
T33 construct: purchased Millipore, Inc. (KinaseProfiler service)
Procedure, shortened: as §1

MINK = biological target: T34, MINK (Homo sapiens, UniProt Q8N4C8)
T34 construct: purchased Millipore, Inc. (KinaseProfiler service)
Procedure, shortened: as §1

MAPKAP-K2 = biological target: T35, MAPKAP-K2 (Homo sapiens, UniProt P49137)
T35 construct: purchased Millipore, Inc. (KinaseProfiler service)
Procedure, shortened: as §1

p38gamma = biological target: T36, p38gamma (Homo sapiens, UniProt P53778)
T36 construct: purchased Millipore, Inc. (KinaseProfiler service)
Procedure, shortened: as §1

SGK1 = biological target: T37, SGK1 (Homo sapiens, UniProt O00141)
T37 construct: purchased Millipore, Inc. (KinaseProfiler service)
Procedure, shortened: as §1

CK1_y = tested on: CK1_y
Procedure, shortened: as §1

EphA5 = biological target: T38, EphA5 (Homo sapiens, UniProt P54756)
T38 construct: purchased Millipore, Inc. (KinaseProfiler service)
Procedure, shortened: as §1

MSSK1 = biological target: T39, MSSK1 (Homo sapiens, UniProt Q9UPE1)
T39 construct: purchased Millipore, Inc. (KinaseProfiler service)
Procedure, shortened: as §1

mTOR = biological target: T40, mTOR (Homo sapiens, UniProt P42345)
T40 construct: purchased Millipore, Inc. (KinaseProfiler service)
Procedure, shortened: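 Compounds were screened at 10 μM in duplicate against a broad kinase panel, with ATP near the Km of each kinase. Values are percent of control, averaged over the two replicates.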

## COCc1ccc(C2CCC2)c(CNC(=O)Nc2c(C)c(-c3cnc(C)nc3)nn2-c2ccccc2)c1 [Example 10, 1-(2-cyclobutyl-5-(methoxymethyl)benzyl)-3-(4-methyl-3-(2-methylpyrimidin-5-yl)-1-phenyl-1H-pyrazol-5-yl)urea]
RIPK2
  Avg POC RIPK2: 99 POC
MRCKbeta
  Avg POC MRCKbeta: 108.5 POC
Mer
  Avg POC Mer: 87.5 POC
PKCeta
  Avg POC PKCeta: 86.5 POC
SGK3
  Avg POC SGK3: 92.5 POC
DMPK
  Avg POC DMPK: 101.5 POC
PAK5
  Avg POC PAK5: 96.5 POC
LIMK1
  Avg POC LIMK1: 92 POC
NLK
  Avg POC NLK: 107 POC
TNK2
  Avg POC TNK2: 114.5 POC
Plk2
  Avg POC Plk2: 101 POC
TBK1
  Avg POC TBK1: 104.5 POC
CAMK4
  Avg POC CAMK4: 144.5 POC
Txk
  Avg POC Txk: 104.5 POC
CDK1/cyclinB
  Avg POC CDK1/cyclinB: 92 POC
Flt3
  Avg POC Flt3: 54 POC
PAK2
  Avg POC PAK2: 88 POC
PhKgamma2
  Avg POC PhKgamma2: 118 POC
FGFR1
  Avg POC FGFR1: 68 POC
CDK5/p25
  Avg POC CDK5/p25: 107.5 POC
JNK3
  Avg POC JNK3: 74 POC
ULK2
  Avg POC ULK2: 89 POC
BrSK1
  Avg POC BrSK1: 86.5 POC
DRAK1
  Avg POC DRAK1: 92.5 POC
mTOR/FKBP12
  Avg POC mTOR/FKBP12: 97.5 POC
IRR
  Avg POC IRR: 96 POC
GSK3beta
  Avg POC GSK3beta: 115 POC
ZAP-70
  Avg POC ZAP-70: 120.5 POC
PDK1
  Avg POC PDK1: 120.5 POC
MAP3K5
  Avg POC MAP3K5: 99 POC
CK1gamma3
  Avg POC CK1gamma3: 39 POC
NEK6
  Avg POC NEK6: 92.5 POC
IR Activated
  Avg POC IR Activated: 99 POC
MINK
  Avg POC MINK: 139.5 POC
MAPKAP-K2
  Avg POC MAPKAP-K2: 106 POC
p38gamma
  Avg POC p38gamma: 102.5 POC
SGK1
  Avg POC SGK1: 96 POC
CK1_y
  Avg POC CK1_y: 97 POC
EphA5
  Avg POC EphA5: 114 POC
MSSK1
  Avg POC MSSK1: 112 POC
mTOR
  Avg POC mTOR: 75 POC

## COCc1ccc(C(F)(F)F)c(CNC(=O)Nc2c(C)c(-c3cnn(C)c3)nn2-c2ccccc2)c1 [Example 33, 1-(1′,4-dimethyl-1-phenyl-1H,1′H-[3,4′-bipyrazol]-5-yl)-3-(5-(methoxymethyl)-2-(trifluoromethyl)benzyl)urea]
RIPK2
  Avg POC RIPK2: 98.5 POC
MRCKbeta
  Avg POC MRCKbeta: 116.5 POC
Mer
  Avg POC Mer: 96.5 POC
PKCeta
  Avg POC PKCeta: 98 POC
SGK3
  Avg POC SGK3: 150 POC
DMPK
  Avg POC DMPK: 104 POC
PAK5
  Avg POC PAK5: 144.5 POC
LIMK1
  Avg POC LIMK1: 91.5 POC
NLK
  Avg POC NLK: 121 POC
TNK2
  Avg POC TNK2: 119.5 POC
Plk2
  Avg POC Plk2: 102 POC
TBK1
  Avg POC TBK1: 105.5 POC
CAMK4
  Avg POC CAMK4: 149 POC
Txk
  Avg POC Txk: 156.5 POC
CDK1/cyclinB
  Avg POC CDK1/cyclinB: 99 POC
Flt3
  Avg POC Flt3: 78.5 POC
PAK2
  Avg POC PAK2: 89.5 POC
PhKgamma2
  Avg POC PhKgamma2: 116 POC
FGFR1
  Avg POC FGFR1: 96 POC
CDK5/p25
  Avg POC CDK5/p25: 100.5 POC
JNK3
  Avg POC JNK3: 135 POC
ULK2
  Avg POC ULK2: 98.5 POC
BrSK1
  Avg POC BrSK1: 119 POC
DRAK1
  Avg POC DRAK1: 141.5 POC
mTOR/FKBP12
  Avg POC mTOR/FKBP12: 109.5 POC
IRR
  Avg POC IRR: 96.5 POC
GSK3beta
  Avg POC GSK3beta: 136.5 POC
ZAP-70
  Avg POC ZAP-70: 149 POC
PDK1
  Avg POC PDK1: 126.5 POC
MAP3K5
  Avg POC MAP3K5: 100 POC
CK1gamma3
  Avg POC CK1gamma3: 119.5 POC
NEK6
  Avg POC NEK6: 115.5 POC
IR Activated
  Avg POC IR Activated: 103.5 POC
MINK
  Avg POC MINK: 100 POC
MAPKAP-K2
  Avg POC MAPKAP-K2: 146 POC
p38gamma
  Avg POC p38gamma: 107.5 POC
SGK1
  Avg POC SGK1: 279 POC
CK1_y
  Avg POC CK1_y: 97.5 POC
EphA5
  Avg POC EphA5: 123 POC
MSSK1
  Avg POC MSSK1: 138.5 POC
mTOR
  Avg POC mTOR: 99 POC

Reference: patent US9969694B2, “N-(arylalkyl)-N′-pyrazolyl-urea, thiourea, guanidine and cyanoguanidine compounds as TrkA kinase inhibitors” (Array BioPharma Inc., priority 2012, dated 2018)
